Consider 31 compounds from patent US11028095B2, “Spiro-lactam and bis-spiro-lactam NMDA receptor modulators and uses thereof” (Aptinyx Inc., priority 2016, dated 2021).

Where two headings read alike, the source gives them in different places.

Type in all cases: biochemical
Assay [1] addresses T1, NMDAR2A expressing HEK cell membranes (Homo sapiens, UniProt Q05586+Q12879).
T1 construct: expressed in transfected cells; host or cells: HEK cells (membrane extract)
The assay can be described thus: NMDAR agonist assay, [3H]MK-801 binding, NMDAR2A. The settings on record: for EC50: [3H]MK-801 binding; for Emax: relative to 1 mM glycine. As for the experimental part:
(§1) (nonequilibrium conditions).
(§2) The baseline value was determined from the best fit curve of the DPM values modeled using the GraphPad program and the log(agonist) vs. response(three parameters) algorithm was then subtracted from all points in the dataset.

The target in assay [2] is T2, NMDAR2B expressing HEK cell membranes (Homo sapiens, UniProt Q05586+Q13224).
T2 construct: expressed in transfected cells; host or cells: HEK cells (membrane extract)
The assay can be described thus: NMDAR agonist assay, [3H]MK-801 binding, NMDAR2B. The following applies: for EC50: [3H]MK-801 binding; for Emax: relative to 1 mM glycine. The procedure: as §1, §2

Assay [3] deals with T3, NMDAR2B expressing HEK cell membranes (Homo sapiens, UniProt Q13224).
T3 construct: expressed in transfected cells; host or cells: HEK cells (membrane extract)
The assay can be described thus: NMDAR agonist assay, [3H]MK-801 binding, NMDAR2B. The following applies: 50 μM glutamate; for EC50: [3H]MK-801 binding, read-out: NMDAR2B log EC50 (converted). The procedure: as §1, §2

Setting [4] is: 50 μM glutamate, read-out: NMDAR2A: log EC50 (converted).
[5] abbreviates: 50 μM glutamate, read-out: NMDAR2A: % maximal [3H]MK-801 binding relative to 1 mM glycine.
The mark [6] stands for this setting: 50 μM glutamate, read-out: NMDAR2B log EC50 (converted).
Where [7] appears, read: 50 μM glutamate, read-out: NMDAR2B: % maximal [3H]MK-801 binding relative to 1 mM glycine.
Setting [8] is: NMDAR2A: log EC50, 50 μM glutamate.
Setting [9] is: read-out: NMDAR2A: % maximal [3H]MK-801 binding relative to 1 mM glycine, 50 μM glutamate.
The mark [10] stands for this setting: NMDAR2B: log EC50, 50 μM glutamate.
[11] abbreviates: read-out: NMDAR2B: % maximal [3H]MK-801 binding relative to 1 mM glycine, 50 μM glutamate.

T3 sequence (Q13224 27-1484, other chains not shown): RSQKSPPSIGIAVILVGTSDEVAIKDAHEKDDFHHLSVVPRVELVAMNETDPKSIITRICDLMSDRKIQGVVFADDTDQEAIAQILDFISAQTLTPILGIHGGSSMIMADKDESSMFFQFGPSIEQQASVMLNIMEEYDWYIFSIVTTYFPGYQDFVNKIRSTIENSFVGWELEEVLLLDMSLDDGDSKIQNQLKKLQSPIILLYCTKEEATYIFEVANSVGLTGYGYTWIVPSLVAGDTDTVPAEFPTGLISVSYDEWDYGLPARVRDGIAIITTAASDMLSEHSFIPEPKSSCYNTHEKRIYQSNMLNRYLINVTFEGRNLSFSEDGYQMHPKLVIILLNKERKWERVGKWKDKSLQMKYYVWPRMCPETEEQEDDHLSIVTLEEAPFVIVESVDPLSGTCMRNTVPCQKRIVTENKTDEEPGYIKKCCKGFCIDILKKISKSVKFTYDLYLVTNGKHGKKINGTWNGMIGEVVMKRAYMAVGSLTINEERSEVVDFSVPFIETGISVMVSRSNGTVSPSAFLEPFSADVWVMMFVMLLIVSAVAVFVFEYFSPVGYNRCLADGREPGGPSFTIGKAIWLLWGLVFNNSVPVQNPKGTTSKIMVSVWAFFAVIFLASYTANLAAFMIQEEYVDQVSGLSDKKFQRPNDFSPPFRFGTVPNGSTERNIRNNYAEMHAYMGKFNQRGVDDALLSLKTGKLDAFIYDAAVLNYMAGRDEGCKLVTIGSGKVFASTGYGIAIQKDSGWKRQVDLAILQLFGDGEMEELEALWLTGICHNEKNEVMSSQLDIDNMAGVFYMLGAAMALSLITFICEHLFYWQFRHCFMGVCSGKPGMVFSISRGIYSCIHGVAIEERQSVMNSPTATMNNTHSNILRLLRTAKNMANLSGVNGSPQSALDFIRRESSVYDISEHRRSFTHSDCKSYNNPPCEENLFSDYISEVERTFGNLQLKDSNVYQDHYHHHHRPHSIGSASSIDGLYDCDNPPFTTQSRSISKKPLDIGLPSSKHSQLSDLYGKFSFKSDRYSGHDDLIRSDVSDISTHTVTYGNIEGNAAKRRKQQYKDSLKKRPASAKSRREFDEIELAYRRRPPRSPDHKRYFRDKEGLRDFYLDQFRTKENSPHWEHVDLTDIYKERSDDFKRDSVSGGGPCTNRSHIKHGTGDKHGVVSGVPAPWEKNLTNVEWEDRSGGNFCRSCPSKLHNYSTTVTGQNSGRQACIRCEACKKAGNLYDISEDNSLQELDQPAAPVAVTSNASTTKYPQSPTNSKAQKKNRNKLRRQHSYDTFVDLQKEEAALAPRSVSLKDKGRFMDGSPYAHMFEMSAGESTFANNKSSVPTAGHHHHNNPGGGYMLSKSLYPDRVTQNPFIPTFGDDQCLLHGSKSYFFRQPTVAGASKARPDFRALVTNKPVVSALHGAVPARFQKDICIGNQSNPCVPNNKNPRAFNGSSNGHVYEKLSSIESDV
T2 sequence (Q13224 27-1484, other chains not shown): as above
T1 sequence (Q12879 23-1464, other chains not shown): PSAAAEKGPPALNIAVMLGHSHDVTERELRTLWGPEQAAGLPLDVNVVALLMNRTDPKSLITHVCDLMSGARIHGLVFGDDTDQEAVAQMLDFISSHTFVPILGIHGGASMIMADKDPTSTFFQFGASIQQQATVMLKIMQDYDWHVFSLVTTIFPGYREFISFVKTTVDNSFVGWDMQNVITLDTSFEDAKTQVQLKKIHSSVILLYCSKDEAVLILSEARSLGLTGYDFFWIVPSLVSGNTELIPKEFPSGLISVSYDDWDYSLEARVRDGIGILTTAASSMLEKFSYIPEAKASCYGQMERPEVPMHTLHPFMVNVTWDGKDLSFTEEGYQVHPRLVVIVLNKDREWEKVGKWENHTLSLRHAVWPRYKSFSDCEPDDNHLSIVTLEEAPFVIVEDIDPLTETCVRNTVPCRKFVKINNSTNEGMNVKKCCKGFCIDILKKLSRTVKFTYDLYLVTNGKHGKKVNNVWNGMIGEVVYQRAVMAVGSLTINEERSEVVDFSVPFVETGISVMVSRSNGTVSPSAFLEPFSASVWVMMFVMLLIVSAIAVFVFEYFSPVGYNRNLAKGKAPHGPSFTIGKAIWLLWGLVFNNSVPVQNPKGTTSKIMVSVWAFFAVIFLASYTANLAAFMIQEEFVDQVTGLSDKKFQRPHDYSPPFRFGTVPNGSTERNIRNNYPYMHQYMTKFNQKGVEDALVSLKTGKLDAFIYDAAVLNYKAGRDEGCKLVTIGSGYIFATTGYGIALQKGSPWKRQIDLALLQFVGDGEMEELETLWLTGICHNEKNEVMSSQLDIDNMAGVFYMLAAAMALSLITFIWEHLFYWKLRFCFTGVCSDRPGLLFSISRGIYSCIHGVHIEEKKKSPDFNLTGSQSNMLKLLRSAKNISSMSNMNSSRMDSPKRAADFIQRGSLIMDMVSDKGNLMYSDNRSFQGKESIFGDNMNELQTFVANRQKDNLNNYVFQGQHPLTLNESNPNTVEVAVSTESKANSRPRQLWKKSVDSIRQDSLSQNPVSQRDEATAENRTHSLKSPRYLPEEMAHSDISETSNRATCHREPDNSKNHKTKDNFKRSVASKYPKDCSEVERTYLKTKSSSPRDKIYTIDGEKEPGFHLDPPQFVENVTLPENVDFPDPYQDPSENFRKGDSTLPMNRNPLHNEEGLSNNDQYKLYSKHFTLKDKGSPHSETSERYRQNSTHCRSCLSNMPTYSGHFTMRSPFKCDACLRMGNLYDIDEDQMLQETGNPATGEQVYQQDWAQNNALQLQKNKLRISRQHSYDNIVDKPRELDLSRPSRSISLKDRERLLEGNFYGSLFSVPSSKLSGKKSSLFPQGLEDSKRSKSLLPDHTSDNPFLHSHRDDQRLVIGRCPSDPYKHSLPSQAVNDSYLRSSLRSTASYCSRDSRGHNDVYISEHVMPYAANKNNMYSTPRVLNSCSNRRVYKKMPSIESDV

In general, EC50 refers to the midpoint of the concentration-response curve. On to `CC(C)C(=O)N1C2(CCC13CNC3=O)CNC2=O` (single isomer, unassigned) [AG, 5-isobutyryl-2,5,8-triazadispiro[3.1.36.24]undecane-1,7-dione], for which the half-maximal effective concentration (EC50) is under 1 nM in assay [1] (setting [4]) and over 100 nM in assay [2] (setting [6]). Also, the Emax in assay [1] (setting [5]) was under 100%. Also, the “NMDAR2B: % maximal [3H]MK-801 binding relative to 1 mM glycine” value in assay [3] is on record as “− (−=0)”.
In the case of `C[C@@H](O)[C@H](NC(=O)C1CCC2(CNC2=O)N1Cc1ccccc1)C(N)=O` (single isomer, unassigned) [AL-1], the EC50 in assay [1] (setting [4]) was under 1 nM; in assay [2] (setting [6]) it was over 100 nM. Further, the Emax in assay [1] (setting [5]) was under 100%. Moreover, in assay [3], the “NMDAR2B: % maximal [3H]MK-801 binding relative to 1 mM glycine” value is reported as “− (−=0)”.
For the compound `C[C@@H](O)[C@H](NC(=O)C1CCC2(CNC2=O)N1C)C(N)=O` (single isomer, unassigned) [BC], the Emax was under 100% in assay [1] (setting [5]) and over 100% in assay [2] (setting [7]). For the same compound, the EC50 in assay [2] (setting [6]) is under 1 nM.
On to `CNC(=O)[C@@H](NCC1CCC2(CN(OCc3ccccc3)C2=O)N1C(=O)OC(C)(C)C)[C@@H](C)O` (single isomer, unassigned) [BM], for which the EC50 in assay [1] (setting [4]) and in assay [2] (setting [6]) was over 100 nM throughout. The Emax in assay [1] (setting [5]) and in assay [2] (setting [7]) was 0% throughout.
As for `COc1ccc(CN2CC3(CC(N[C@H](C(=O)O)[C@@H](C)O)CN3C(=O)OC(C)(C)C)C2=O)cc1` (single isomer, unassigned) [CE, (5-(tert-butoxycarbonyl)-2-(4-methoxybenzyl)-1-oxo-2,5-diazaspiro[3.4]octan-7-yl)-L-threonine], the EC50 is over 100 nM in assay [1] (setting [4]) and under 1 nM in assay [2] (setting [6]). Further, the results for the Emax in assay [1] (setting [5]) and in assay [2] (setting [7]) were 0% and over 100%, respectively.
Consider `CC(O)C(NCC1CCC2(CNC2=O)N1)C(N)=O` (single isomer, unassigned) [CM], for which the EC50 in assay [1] (setting [4]) and in assay [2] (setting [6]) was under 1 nM each time. For the same compound, the Emax in assay [1] (setting [5]) and in assay [2] (setting [7]) was under 100% in each case.
With `CNC(=O)C(NCC1CCC2(CN(OCc3ccccc3)C2=O)N1)C(C)O` (single isomer, unassigned) [CO], the EC50 in assay [1] (setting [4]) and in assay [2] (setting [6]) was under 1 nM each time. Further, the Emax in assay [1] (setting [5]) and in assay [2] (setting [7]) was under 100% each time.
Turning to `CNC(=O)C(C(C)O)N(C)CC1CCC2(CN(OCc3ccccc3)C2=O)N1` (single isomer, unassigned) [CW], the half-maximal effective concentration (EC50) in assay [1] (setting [4]) and in assay [2] (setting [6]) was under 1 nM each time. Moreover, the Emax in assay [1] (setting [5]) and in assay [2] (setting [7]) was under 100% each time.
As for `NC(=O)C1CCC2(CN(OCc3ccccc3)C2=O)N1` (single isomer, unassigned) [CY, 2-(benzyloxy)-1-oxo-2,5-diazaspiro[3.4]octane-6-carboxamide], the EC50 in assay [1] (setting [4]) and in assay [2] (setting [6]) was under 1 nM throughout. The Emax in assay [1] (setting [5]) and in assay [2] (setting [7]) was under 100% in each case.
With `NC(=O)C1CCC2(CNC2=O)N1` (single isomer, unassigned) [DA, 1-oxo-2,5-diazaspiro[3.4]octane-6-carboxamide], the EC50 in assay [1] (setting [4]) and in assay [2] (setting [6]) was under 1 nM each time. Further, the Emax in assay [1] (setting [5]) and in assay [2] (setting [7]) was under 100% each time.
For `NC(=O)C1CCC2(CNC2=O)N1` (single isomer, unassigned) [DB, 1-oxo-2,5-diazaspiro[3.4]octane-6-carboxamide], the concentration for a half-maximal effect (EC50) in assay [3] is under 1 nM.
Regarding `CC(C)CN1C(C(N)=O)CCC12CNC2=O` (single isomer, unassigned) [DC, 5-isobutyl-1-oxo-2,5-diazaspiro[3.4]octane-6-carboxamide], the EC50 in assay [1] (setting [4]) and in assay [2] (setting [6]) was under 1 nM in each case. In addition, the results for the Emax in assay [1] (setting [5]) and in assay [2] (setting [7]) were under 100% and over 100%, respectively.
On to `NC(=O)C1CCC2(CNC2=O)N1Cc1ccccc1` (single isomer, unassigned) [DE, 5-benzyl-1-oxo-2,5-diazaspiro[3.4]octane-6-carboxamide], for which the EC50 in assay [1] (setting [4]) and in assay [2] (setting [6]) was under 1 nM throughout. In addition, the Emax in assay [1] (setting [5]) and in assay [2] (setting [7]) was under 100% throughout.
Turning to `NC(=O)C1CCC2(CNC2=O)N1Cc1ccc(F)cc1` (single isomer, unassigned) [DG, 5-(4-fluorobenzyl)-1-oxo-2,5-diazaspiro[3.4]octane-6-carboxamide], the EC50 in assay [1] (setting [4]) was under 1 nM. Also, the Emax in assay [1] (setting [5]) and in assay [2] (setting [7]) was under 100% throughout.
Turning to `O=C1NCC12CCC1(CNC1=O)N2Cc1ccc(F)cc1` (single isomer, unassigned) [DI, 5-(4-fluorobenzyl)-2,5,8-triazadispiro[3.1.36.24]undecane-1,7-dione], the Emax in assay [1] (setting [5]) and in assay [2] (setting [7]) was under 100% throughout. Moreover, the EC50 in assay [2] (setting [6]) was under 1 nM.
`O=C1NCC12CCC1(CNC1=O)N2Cc1ccc(F)cc1` (single isomer, unassigned) [DJ, 5-(4-fluorobenzyl)-2,5,8-triazadispiro[3.1.36.24]undecane-1,7-dione]: the EC50 in assay [1] (setting [4]) and in assay [3] was under 1 nM in each case.
Consider `CN1C2(CCC13CNC3=O)CNC2=O` (centres unmarked) [AB-3, 5-methyl-2,5,8-triazadispiro[3.1.36.24]undecane-1,7-dione], for which the EC50 in assay [1] (setting [8]) and in assay [2] (setting [10]) was over 100 nM in each case. Further, the Emax in assay [1] (setting [9]) and in assay [2] (setting [11]) was 0% throughout.
On to `CC(C)CN1C2(CCC13CNC3=O)CNC2=O` (centres unmarked) [AE, 5-isobutyl-2,5,8-triazadispiro[3.1.36.24]undecane-1,7-dione], for which the EC50 in assay [1] (setting [8]) and in assay [2] (setting [10]) was over 100 nM each time. In addition, the Emax in assay [1] (setting [9]) and in assay [2] (setting [11]) was 0% each time.
As to `CC(C)C(=O)N1C[C@@H](C(N)=O)C[C@]12CNC2=O` [AT, (4R,7S)-5-isobutyryl-1-oxo-2,5-diazaspiro[3.4]octane-7-carboxamide], the Emax is under 100% in assay [1] (setting [5]) and 0% in assay [2] (setting [7]). For the same compound, the EC50 in assay [2] (setting [6]) was over 100 nM.
`C[C@@H](O)[C@H](NCC1CCC2(CN(OCc3ccccc3)C2=O)N1C(=O)OC(C)(C)C)C(N)=O` (some centres unmarked) [BI]: the EC50 in assay [1] (setting [4]) and in assay [2] (setting [6]) was over 100 nM in each case. The Emax in assay [1] (setting [5]) and in assay [2] (setting [7]) was 0% each time.
On to `C[C@@H](O)[C@H](NCC1CCC2(CNC2=O)N1C(=O)OC(C)(C)C)C(N)=O` (some centres unmarked) [BK], for which, in assay [1] (setting [4]), the EC50 was over 100 nM. Also, the Emax was 0% in assay [1] (setting [5]) and under 100% in assay [2] (setting [7]).
In the case of `C[C@@H](O)[C@H](NCC1CCC2(CNC2=O)N1C(=O)OC(C)(C)C)C(N)=O` (some centres unmarked) [BL], the EC50 in assay [2] (setting [6]) was under 1 nM.
As to `CNC(=O)[C@@H](NCC1CCC2(CNC2=O)N1C(=O)OC(C)(C)C)[C@@H](C)O` (some centres unmarked) [BP], the EC50 in assay [1] (setting [4]) and in assay [2] (setting [6]) was over 100 nM throughout. In addition, the Emax in assay [1] (setting [5]) and in assay [2] (setting [7]) was 0% in each case.
Take `C[C@@H](O)[C@@H](C(N)=O)N(C)CC1CCC2(CN(OCc3ccccc3)C2=O)N1C(=O)OC(C)(C)C` (stereo partly drawn) [BU, tert-butyl 6-((((2S,3R)-1-amino-3-hydroxy-1-oxobutan-2-yl)(methyl)amino)methyl)-2-(benzyloxy)-1-oxo-2,5-diazaspiro[3.4]octane-5-carboxylate]: the concentration for a half-maximal effect (EC50) in assay [1] (setting [4]) and in assay [2] (setting [6]) was under 1 nM throughout. Further, the Emax in assay [1] (setting [5]) and in assay [2] (setting [7]) was under 100% in each case.
As for `C[C@@H](O)[C@@H](C(=O)N(C)C)N(C)CC1CCC2(CN(OCc3ccccc3)C2=O)N1C(=O)OC(C)(C)C` (some centres unmarked) [BW], the EC50 in assay [1] (setting [4]) and in assay [2] (setting [6]) was under 1 nM in each case. The Emax in assay [1] (setting [5]) is under 100%; in assay [2] (setting [7]), over 100%.
For the compound `COc1ccc(CN2CC3(CC(N[C@H](C(N)=O)[C@@H](C)O)CN3C(=O)OC(C)(C)C)C2=O)cc1` (stereo partly drawn) [CA, tert-butyl 7-(((2S,3R)-1-amino-3-hydroxy-1-oxobutan-2-yl)amino)-2-(4-methoxybenzyl)-1-oxo-2,5-diazaspiro[3.4]octane-5-carboxylate], the EC50 in assay [1] (setting [4]) and in assay [2] (setting [6]) was over 100 nM in each case. Besides, the Emax in assay [1] (setting [5]) and in assay [2] (setting [7]) was 0% in each case.
On to `COc1ccc(CN2CC3(CC(N[C@H](C(N)=O)[C@@H](C)O)CN3)C2=O)cc1` (some centres unmarked) [CC], for which the values for the Emax in assay [1] (setting [5]) and in assay [2] (setting [7]) were under 100% and 0%, respectively. In addition, in assay [2] (setting [6]), the EC50 was over 100 nM.
Take `COc1ccc(CN2CC3(CC(N[C@H](C(N)=O)[C@@H](C)O)CN3)C2=O)cc1` (some centres unmarked) [CD]: the EC50 in assay [1] (setting [4]) was under 1 nM.
Consider `COc1ccc(CN2CC3(CC(N[C@H](C(=O)O)[C@@H](C)O)CN3C(=O)OC(C)(C)C)C2=O)cc1` (stereo partly drawn) [CF, (5-(tert-butoxycarbonyl)-2-(4-methoxybenzyl)-1-oxo-2,5-diazaspiro[3.4]octan-7-yl)-L-threonine], for which the half-maximal effective concentration (EC50) in assay [1] (setting [4]) was over 100 nM; in assay [2] (setting [6]), under 1 nM. Also, the Emax in assay [1] (setting [5]) was 0%; in assay [2] (setting [7]), under 100%.
As for `COc1ccc(CN2C[C@@]3(C[C@H](C(N)=O)CN3CC(C)C)C2=O)cc1` [CI, (4S,7S)-5-isobutyl-2-(4-methoxybenzyl)-1-oxo-2,5-diazaspiro[3.4]octane-7-carboxamide], the Emax in assay [1] (setting [5]) and in assay [2] (setting [7]) was under 100% throughout. For the same compound, the EC50 in assay [2] (setting [6]) was under 1 nM.
On to `COc1ccc(CN2CC3(C[C@H](C(N)=O)CN3CC(C)C)C2=O)cc1` (some centres unmarked) [CJ], for which the Emax in assay [1] (setting [5]) and in assay [2] (setting [7]) was under 100% throughout.
